Reference: PubChem BioAssay (NCI)
Where “and” joins values, the source holds several entries; their conditions need not be identical. Equal entries are not always repeated.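 96-well plates; 48 h exposure; 5 concentrations. Endpoints by linear interpolation between flanking doses. Not reached: highest tested concentration assigned. GI50: concentration for 50% inhibition of growth. TGI is the concentration that stops growth completely.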

Assays:
Experiment in all cases: NCI-60 cell line screen, 48 h
MDA-N = tested on: MDA-N
SNB-78 CNS = tested on: SNB-78 CNS
DMS 273 small cell lung = tested on: DMS 273 small cell lung
RXF-631 renal = tested on: RXF-631 renal
HOP-18 NSCLC = tested on: HOP-18 NSCLC
XF 498 CNS = tested on: XF 498 CNS
M19-MEL melanoma = tested on: M19-MEL melanoma
DMS 114 small cell lung = tested on: DMS 114 small cell lung
LXFL 529 NSCLC = tested on: LXFL 529 NSCLC
SN12K1 renal = tested on: SN12K1 renal

SMILES	TGI (MDA-N)	TGI (SNB-78 CNS)	TGI (DMS 273 small cell lung)	TGI (HOP-18 NSCLC)	TGI (XF 498 CNS)	TGI (M19-MEL melanoma)	TGI (DMS 114 small cell lung)	TGI (LXFL 529 NSCLC)	other results
COc1cc2c(cc1O)C(c1cc(O)c(O)c(OC)c1)C(O)(C(=O)O)C(CO)C2O (stereo unspecified)	30.9 µM								
Oc1c2c(c(O)c3ccccc13)C1(N=N2)c2ccccc2Oc2ccccc21	21.8 µM								
NCCN1C(=O)c2ccccc2C1(O)c1ccc(Cl)cc1 (stereo unspecified)	32.7 µM								
O=c1cc(O)c2c(O)cc(O)cc2o1	> 100 µM								
CC(=O)NC1=C(Sc2ccc(Cl)cc2)C(=O)c2ccccc2C1=O	3.17 µM								
CCCC#CCOC(=O)c1cc([N+](=O)[O-])cc([N+](=O)[O-])c1	> 100 µM								
COc1cc2c(cc1OC)[C@@H]([C@H](O)c1ccccc1)NCC2		> 100 µM	> 100 µM	> 100 µM	> 100 µM	> 100 µM	> 100 µM	> 100 µM	TGI (RXF-631 renal): > 100 µM
Cc1ccc2c(CC(=O)O)cc(=O)oc2c1			> 100 µM	> 100 µM	9.18 µM	> 100 µM	> 100 µM	> 100 µM	
O=C(CC1C(=O)Nc2ccccc2S1(=O)=O)Nc1cccc(Cl)c1 (stereo unspecified)		> 100 µM	29.4 µM		41.5 µM	34.8 µM	30.6 µM	38.3 µM	TGI (RXF-631 renal): 45.3 µM
C[n+]1c(/C=C/c2ccc(/C=N/NC(=O)c3ccc(C(=O)N/N=C/c4ccc(/C=C/c5cn6ccccc6[n+]5C)cc4)cc3)cc2)cn2ccccc21	> 100 µM								
Nc1nc(-c2cc(-c3cccc4ccccc34)nc(N)n2)cc(-c2cccc3ccccc23)n1	> 100 µM								
CCc1ncnc2cc(OCC3CO3)c(OC)cc12 (stereo unspecified)	21.8 µM								
O=C1c2c(c3c4ccccc4[nH]c3c3[nH]c4ccccc4c23)C(=O)N1Cc1ccccc1		9.63 µM	6.74 µM			12.9 µM	8.92 µM	11.4 µM	TGI (RXF-631 renal): 6.53 µM
CCN(CC)CCC(=O)/C=C/c1ccc(C)cc1		79.3 µM	25.5 µM	31.5 µM	25.1 µM	25.4 µM	24.4 µM	20.6 µM	TGI (RXF-631 renal): 35.1 µM
Nc1ncnc2nn(C3OC(CO)C(O)C3O)nc12 (stereo unspecified)	> 82.6 µM								
COC(=O)C(=O)C(CC(=O)Nc1cccc(C(F)(F)F)c1)C(=O)OC (stereo unspecified)		> 100 µM				> 100 µM	> 100 µM	> 100 µM	
O=C1CCC2(c3ccccc3)Nc3ccc(Cl)cc3N12 (stereo unspecified)		> 100 µM			> 100 µM	> 100 µM	> 100 µM	> 100 µM	TGI (RXF-631 renal): > 100 µM

SMILES	TGI (MDA-N)	TGI (SNB-78 CNS)	TGI (DMS 273 small cell lung)	TGI (HOP-18 NSCLC)	TGI (XF 498 CNS)	TGI (M19-MEL melanoma)	TGI (DMS 114 small cell lung)	TGI (LXFL 529 NSCLC)	other results
Cc1cc(NS(=O)(=O)c2ccc(NC(=O)COC(=O)c3cccc4c(=O)c5ccccc5[nH]c34)cc2)no1		> 100 µM	> 100 µM		> 100 µM	> 100 µM	> 100 µM	> 100 µM	
Cc1ccc(C)c2c(N=Nc3ccccc3[N+](=O)[O-])c(O)[nH]c12	> 100 µM								
Cc1cc(NS(=O)(=O)c2ccc(Nc3c4ccccc4nc4c(C(=O)Nc5ccc(S(=O)(=O)N=C(N)N)cc5)ccc(Cl)c34)cc2)no1		97.7 µM	> 100 µM	> 100 µM	90.9 µM	> 100 µM	68.9 µM	> 100 µM	
CCN(CC)CCCNc1[nH]ncc2c(C)c3nc4ccccc4c3cc12	2.39 µM and 3.99 µM								GI50 (MDA-N): 1.19 µM
O=C1N[C@H]2[C@H](O)[C@H](O)[C@@H](O)[C@H](O)[C@@H]2c2cc3c(c(O)c21)OCO3	0.185 µM and 0.128 µM		0.466 µM	0.653 µM				4.13 µM	GI50 (SNB-78 CNS): 0.248 µM and 2.04 µM; GI50 (DMS 273 small cell lung): 3.09 µM; TGI (SN12K1 renal): 0.36 µM; GI50 (RXF-631 renal): 0.288 µM; TGI (RXF-631 renal): 4.33 µM; GI50 (HOP-18 NSCLC): 0.377 µM and 1.99 µM; GI50 (XF 498 CNS): 0.25 µM and 1.24 µM; GI50 (M19-MEL melanoma): 0.276 µM and 0.463 µM; GI50 (DMS 114 small cell lung): 0.241 µM and 0.604 µM; GI50 (MDA-N): 0.025 µM; GI50 (LXFL 529 NSCLC): 0.248 µM
Brc1ccc(C2SCc3nc4ccccc4n32)cc1 (stereo unspecified)		22.5 µM		78.5 µM	24.5 µM	27 µM		22.2 µM	
O=C(NC(=O)c1cc2cc(Br)cc(Br)c2oc1=O)Oc1ccccc1		> 100 µM	> 100 µM	> 100 µM	> 100 µM	> 100 µM	> 100 µM	> 100 µM	
Cc1ccc(S(=O)(=O)SCc2ccccc2)cc1		30 µM	> 69.5 µM	> 100 µM	95.2 µM	> 77.4 µM	47.8 µM	47.4 µM	
CN1C(=O)C(=CN(C)c2ccccc2)C(=O)N(C)C1=O		> 100 µM	> 100 µM	> 100 µM	> 100 µM	> 100 µM	> 100 µM	> 100 µM	
C#CC(=O)OCC#CCOC(=O)C#C	> 100 µM								
CC12CC(Sc3ccccc3N1)c1ccccc1O2 (stereo unspecified)		42.6 µM	30.2 µM	31.6 µM	30.2 µM	30.9 µM	29 µM	28.4 µM	TGI (RXF-631 renal): 28.4 µM
C#C/C=C/CC1OC(C(Br)CC)CC(Br)C2CC1O2 (stereo unspecified)	> 100 µM								
O=C(Sc1sc(=S)sc1SC(=O)c1ccccc1)c1ccccc1		> 100 µM	> 100 µM	> 100 µM	> 100 µM	51 µM	> 100 µM	> 100 µM	
O=S(=O)(NCCO)c1cc[c]([Sb](=[O])([OH])[OH])cc1	> 100 µM								GI50 (MDA-N): > 100 µM
Cc1cc2c(=O)cc(-c3ccc(F)cc3)oc2c(C(=O)O)c1C		> 100 µM	> 100 µM	> 100 µM	> 100 µM	> 100 µM	> 100 µM	> 100 µM	TGI (RXF-631 renal): > 100 µM
Cc1cc2c(=O)[nH]c(N)nc2nc1C	> 100 µM								
C[C@@](O)(/C=C/[C@H]1CC=CC(=O)O1)[C@@H](C[C@@H](O)\C=C/C=C\C=C\CO)OP(=O)(O)O	8.08 µM	60.8 µM and > 58.8 µM	167 µM	28.5 µM and 127 µM	101 µM and 113 µM	25.6 µM	82.6 µM		GI50 (SNB-78 CNS): 11.3 µM; GI50 (SN12K1 renal): 2.69 µM; TGI (SN12K1 renal): 30.7 µM and 19.3 µM; GI50 (HOP-18 NSCLC): 15.9 µM and 42.2 µM
